Test results published in patent US20240287121A1, “GALECTIN-3 INHIBITING C-GLYCOSIDE OXIMES” (GLYCOMIMETICS, INC., priority 2021, published 2024).

biological target: T1, galectin-3 (Homo sapiens, UniProt P17931); experiment: Galectin-3 Activity ELISA assay: inhibition of binding of galectin-3 to immobilized Galβ1-3GlcNAc polymer; conditions: competitive ELISA; Galβ1-3GlcNAc polymer on streptavidin plate; A450 readout; read-out: Galectin-3 Antagonist Activity IC50
T1 construct: purchased IBL IBATGPO414
T1 sequence (P17931 whole entry): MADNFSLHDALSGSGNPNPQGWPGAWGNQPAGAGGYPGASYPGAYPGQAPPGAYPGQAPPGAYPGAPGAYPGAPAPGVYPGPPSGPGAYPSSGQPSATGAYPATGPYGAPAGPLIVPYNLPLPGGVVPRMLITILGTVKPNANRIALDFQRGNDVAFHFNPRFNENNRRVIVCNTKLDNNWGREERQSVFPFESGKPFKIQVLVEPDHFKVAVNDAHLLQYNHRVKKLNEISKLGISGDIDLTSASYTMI
Text: An inhibition assay may be used to screen for antagonists of galectin-3. For example, an assay may be performed to characterize the capability of a compound described herein to inhibit interaction of galectin-3 with a Galβ1-3GlcNAc carbohydrate structure. The inhibition assay may be a competitive binding assay, which allows the determination of IC50 values. By way of example, a Galβ1-3GlcNAc polymer may be immobilized onto a matrix; a composition may be added to reduce nonspecific binding; the immobilized Galβ1-3GlcNAc polymer may be contacted with the candidate compound in the presence of galectin-3 group under conditions and for a time sufficient to permit galectin-3 to bind to the immobilized Galβ1-3GlcNAc polymer; the immobilized Galβ1-3GlcNAc polymer may be washed; and the amount of galectin-3 bound to the immobilized Galβ1-3GlcNAc polymer may be detected. Variations of such steps can be readily and routinely accomplished by a person of ordinary skill in the art.
Galectin-3 antagonists were evaluated for their ability to inhibit binding of galectin-3 to a Galβ1-3GlcNAc carbohydrate structure. The detailed protocol was as follows. A 1 μg/mL suspension of a Galβ1-3GlcNAcβ-3Galβ1-4GlcNAcβ-PAA-biotin polymer (Glycotech, catalog number 01-096) was prepared. A 100 μL aliquot of the polymer was added to the wells of a 96-well streptavidin-coated plate (R&D Systems, catalog number CP004). A 100 μL aliquot of 1× Tris Buffered Saline (TBS, Sigma, catalog number T5912-10×) was added to control wells. The polymer was allowed to bind to the streptavidin-coated wells for 1.5 hours at room temperature. The contents of the wells were discarded and 200 μL of 1×TBS containing 1% bovine serum albumin (BSA) was added to each well as a blocking reagent, and the plate was kept at room temperature for 30 minutes. The wells were washed three times with 1×TBS containing 0.1% BSA. A serial dilution of test compounds was prepared in a separate V-bottom plate (Corning, catalog number 3897). A 75 μL aliquot of the highest concentration of the compound to be tested was added to the first well in a column of the V-bottom plate, then 15 μl were serially transferred into 60 μL 1×TBS through the remaining wells in the column to generate a 1 to 5 serial dilution. A 60 μL aliquot of 2 ug/mL galectin-3 (IBL, catalog number IBATGPO414) was added to each well in the V-bottom plate. A 100 μL aliquot of the galectin-3/test compound mixture was transferred from the V-bottom plate into the assay plate containing the Galβ1-3GlcNAc polymer. Four sets of control wells in the assay plate were prepared in duplicate containing 1) both Galβ1-3GlcNAc polymer and galectin-3, 2) neither the polymer nor galectin-3, 3) galectin-3 only, no polymer, or 4) polymer only, no galectin-3. The plate was gently rocked for 1.5 hours at room temperature. The wells were washed four times with TBS/0.1% BSA. A 100 μL aliquot of anti-galectin-3 antibody conjugated to horse radish peroxidase (R&D Systems, from DGAL30 kit) was added to each well and the plate was kept at room temperature for 1 hour. The wells were washed four times with TBS/0.1% BSA. A 100 μL aliquot of TMB substrate solution was added to each well. The TMB substrate solution was prepared by making a 1:1 mixture of TMB Peroxidase Substrate (KPL, catalog number 5120-0048) and Peroxidase Substrate Solution B (KPL, catalog number 5120-0037). The plate was kept at room temperature for 10 to 20 minutes. The color development was stopped by adding 100 μL 10% phosphoric acid (RICCA Chemical Co., catalog number 5850-16). The absorbance at 450 nm (A450) was measured using a FlexStation 3 plate reader (Molecular Devices). Plots of A450 versus test compound concentration and IC50 determinations were made using GraphPad Prism 6.

In order of falling IC50:
1. [2H]C([2H])([2H])OC1C(n2cc(-c3cc(F)c(F)c(F)c3)nn2)[C@@H](O)C(CO)O[C@H]1[C@H](OCc1ccc(Cl)cc1)C(C)=NOCC(C)C (stereo partly shown) [Compound 38]  16.7 µM
2. [2H]C([2H])([2H])OC1C(n2cc(-c3cc(F)c(F)c(F)c3)nn2)[C@@H](O)C(CO)O[C@H]1[C@H](OCc1ccc(Cl)cc1)C(C)=NOCC1CC1 (stereo partly shown) [Compound 37]  10.6 µM
3. [2H]C([2H])([2H])OC1C(n2cc(-c3cc(F)c(F)c(F)c3)nn2)[C@@H](O)C(CO)O[C@H]1[C@H](OCc1ccc(Cl)cc1)C(C)=NOCC (stereo partly shown) [Compound 36]  10.3 µM
4. [2H]C([2H])([2H])OC1C(n2cc(-c3cc(F)cc(F)c3)nn2)[C@@H](O)C(CO)O[C@H]1[C@H](OCc1ccc(Cl)cc1)/C(=N/OC)C([2H])([2H])C([2H])([2H])[2H] (stereo partly shown) [Compound 35]  6.9 µM
5. CCC(=NOCC1CC1)[C@@H](OCc1ccc(Cl)cc1)[C@@H]1OC(CO)[C@H](O)C(n2cc(-c3cc(F)c(F)c(F)c3)nn2)C1O (stereo partly shown) [Compound 41]  2.8 µM
6. CCON=C(CC)C(OCc1ccc(Cl)cc1)C1OC(CO)C(O)C(n2cc(-c3cc(F)c(F)c(F)c3)nn2)C1O (stereo not shown) [Compound 40]  0.9 µM
7. CCC(=NOC)[C@@H](OCc1ccc(Cl)cc1)[C@@H]1OC(CO)[C@H](O)C(n2cc(-c3cc(F)c(F)c(F)c3)nn2)C1O (stereo partly shown) [Compound 34]  0.5 µM
